Reference: patent publication US20240325409A1, “Fused Heterotetracyclic Antiviral Agents” (Enanta Pharmaceuticals, Inc., priority 2023, published 2024)

system: HBV; experiment: HBV infection of HepG2-NTCP cells, HBeAg AlphaLISA readout; assay type: cell-based; conditions: Hepatitis B virus, 192 h, 2000 GE/cell, HBeAg in supernatant at day 8 post infection, 50% reduction relative to DMSO controls, read-out: Cellular EC50
Experimental: HepG2-NTCP A3 cells were maintained in DMEM media supplemented with GlutaMAX™, 10% fetal bovine serum, 1% penicillin/streptomycin, and 5 ug/mL puromycin at 37° C. in a humidified atmosphere with 5% CO2 in a collagen-coated tissue culture flask.
HepG2-NTCP cells were seeded in 384 well plate containing 16,000 cells/well two days prior to the infection. On the day of infection, compounds were 3-fold serially diluted in DMSO and pre-incubated with HepG2-NTCP cells for two hours before purified HBV addition. HBV infection was carried out at 2000 GE/cell with 4% PEG, and the final concentration of DMSO is 0.5%. On day one post infection, HBV-containing media was aspirated, cells were washed once with PBS and then maintained in 2.5% DMSO containing media for the remainder of the assay.
Supernatants from infected HepG2-NTCP cells were collected at day 8 post infection, and the amount of viral antigen HBeAg was measured by HBeAg AlphaLISA detection kit (PerkinElmer) following the manufacturer's recommended protocol. Irrespective of readout, compound concentrations that reduce viral product accumulation in supernatants by 50% relative to DMSO controls (EC50) are reported. EC50 ranges are as follows: A<0.1 µM; B 0.1-1 µM; C>1 µM.

EC50 [µM]	Structure (SMILES)
< 0.1	CN1[C@H](C2CCCCC2)CN(c2ccccc2)c2cc3c(cc2S1(=O)=O)-c1cc(C(=O)O)sc1CO3 [Example 19]
0.1 to 1	CCCCC1CN(c2ccccc2)c2cc3c(cc2S(=O)(=O)N1C)-c1cc(C(=O)O)ccc1OC3 (stereo not drawn) [Example 24, 10-butyl-11-methyl-8-phenyl-8,9,10,11-tetrahydro-6H-benzo[3,4]isochromeno[7,6-f][1,2,5]thiadiazepine-2-carboxylic acid 12,12-dioxide]
0.1 to 1	CCCC[C@@H]1CN(c2ccccc2)c2cc3oc4ccc(C(=O)O)cc4c3cc2S(=O)(=O)N1C [Example 34, (R)-3-butyl-2-methyl-5-phenyl-2,3,4,5-tetrahydrobenzo[2,3]benzofuro[6,5-f][1,2,5]thiadiazepine-10-carboxylic acid 1,1-dioxide]
< 0.1	CN1[C@H](C2CCCCC2)CN(c2ccccc2)c2cc3c(cc2S1(=O)=O)-c1cc(C(=O)O)ccc1CO3 [Example 8]
> 1	CCCC[C@@H]1CN(c2ccccc2)c2cc3c(cc2S(=O)(=O)N1C)-c1cc(C(=O)O)ccc1[C@@H](C(C)(C)C)O3 [Example 22b, (5R,10R)-5-(tert-butyl)-10-butyl-11-methyl-8-phenyl-8,9,10,11-tetrahydro-5H-benzo[3,4]chromeno[7,6-f][1,2,5]thiadiazepine-2-carboxylic acid 12,12-dioxide]
< 0.1	CN1[C@H](C2CCCCC2)CN(c2ccccc2)c2cc3c(cc2S1(=O)=O)-c1cc(C(=O)O)c(F)c(F)c1CO3 [Example 14]
< 0.1	CN1[C@H](C2CCC2)CN(c2ccccc2)c2cc3c(cc2S1(=O)=O)-c1cc(C(=O)O)sc1CO3 [Example 16]
0.1 to 1	CN1[C@H](CC2CC2)CN(c2ccccc2)c2cc3c(cc2S1(=O)=O)-c1cc(C(=O)O)ccc1CO3 [Example 3]
< 0.1	CCCC[C@@H]1CN(c2ccccc2)c2cc3c(cc2S(=O)(=O)N1C)-c1cc(C(=O)O)c(F)c(F)c1CO3 [Example 17]
0.1 to 1	CC(C)C[C@@H]1CN(C2CCC2)c2cc3c(cc2S(=O)(=O)N1C)-c1cc(C(=O)O)c(F)c(F)c1CO3 [Example 39]
< 0.1	CC(C)C[C@@H]1CN(c2ccccc2)c2cc3c(cc2S(=O)(=O)N1C)-c1cc(C(=O)O)sc1CO3 [Example 18, (R)-9-isobutyl-10-methyl-7-phenyl-7,8,9,10-tetrahydro-4H-thieno[2′,3′:3,4]chromeno[7,6-f][1,2,5]thiadiazepine-2-carboxylic acid 11,11-dioxide]
0.1 to 1	CCCC[C@@H]1CN(c2ccccc2)c2cc3c(cc2S(=O)(=O)N1C)-c1cc(C(=O)O)ccc1OCCO3 [Example 35, (R)-12-butyl-13-methyl-10-phenyl-6,7,10,11,12,13-hexahydrobenzo[7′,8′][1,4]dioxocino[6′,5′:4,5]benzo[1,2-f][1,2,5]thiadiazepine-2-carboxylic acid 14,14-dioxide]
0.1 to 1	CN1[C@H](C2CC2)CN(c2ccccc2)c2cc3c(cc2S1(=O)=O)-c1cc(C(=O)O)ccc1CO3 [Example 2, (R)-10-cyclopropyl-11-methyl-8-phenyl-8,9,10,11-tetrahydro-5H-benzo[3,4]chromeno[7,6-f][1,2,5]thiadiazepine-2-carboxylic acid 12,12-dioxide]
< 0.1	CCCN1C[C@@H](CC(C)C)N(C)S(=O)(=O)c2cc3c(cc21)OCc1c-3cc(C(=O)O)c(F)c1F [Example 37]
0.1 to 1	CCCC[C@@H]1CN(c2ccccc2)c2cc3c(cc2S(=O)(=O)N1C)-c1cc(C(=O)O)ccc1C(C)(C)O3 [Example 23, (R)-10-butyl-5,5,11-trimethyl-8-phenyl-8,9,10,11-tetrahydro-5H-benzo[3,4]chromeno[7,6-f][1,2,5]thiadiazepine-2-carboxylic acid 12,12-dioxide]
< 0.1	CC(C)C[C@@H]1CN(c2ccccc2)c2cc3c(cc2S(=O)(=O)N1C)-c1cc(C(=O)O)c(F)c(F)c1CO3 [Example 12, (R)-3,4-difluoro-10-isobutyl-11-methyl-8-phenyl-8,9,10,11-tetrahydro-5H-benzo[3,4]chromeno[7,6-f][1,2,5]thiadiazepine-2-carboxylic acid 12,12-dioxide]
< 0.1	CCCC[C@@H]1CN(c2ccccc2)c2cc3c(cc2S(=O)(=O)N1C)-c1cc(C(=O)O)c(F)cc1CO3 [Example 10, (R)-10-butyl-3-fluoro-11-methyl-8-phenyl-8,9,10,11-tetrahydro-5H-benzo[3,4]chromeno[7,6-f][1,2,5]thiadiazepine-2-carboxylic acid 12,12-dioxide]
< 0.1	CCCC[C@@H]1CN(c2ccccc2)c2cc3c(cc2S(=O)(=O)N1C)-c1cc(C(=O)O)sc1CO3 [Example 15, (R)-9-butyl-10-methyl-7-phenyl-7,8,9,10-tetrahydro-4H-thieno[2′,3′:3,4]chromeno[7,6-f][1,2,5]thiadiazepine-2-carboxylic acid 11,11-dioxide]
> 1	CN1[C@H](C2CCCCC2)CNc2cc3c(cc2S1(=O)=O)-c1cc(C(=O)O)ccc1CO3 [Example 25, (R)-10-cyclohexyl-11-methyl-8,9,10,11-tetrahydro-5H-benzo[3,4]chromeno[7,6-f][1,2,5]thiadiazepine-2-carboxylic acid 12,12-dioxide]
0.1 to 1	COC(C)(C)CN1C[C@@H](CC(C)C)N(C)S(=O)(=O)c2cc3c(cc21)OCc1c-3cc(C(=O)O)c(F)c1F [Example 40]
> 1	CN1Cc2ccc(C(=O)O)cc2-c2cc3c(cc21)NC[C@@H](C1CCCCC1)N(C)S3(=O)=O [Example 31, (R)-10-cyclohexyl-6,11-dimethyl-5,6,8,9,10,11-hexahydro-[1,2,5]thiadiazepino[7,6-b]phenanthridine-2-carboxylic acid 12,12-dioxide]
< 0.1	CN1[C@H](C2CCC2)CN(c2ccccc2)c2cc3c(cc2S1(=O)=O)-c1cc(C(=O)O)c(F)c(F)c1CO3 [Example 13]
> 1	CCCC[C@@H]1CN(c2ccccc2)c2cc3c(cc2S(=O)(=O)N1C)-c1cc(C(=O)O)ccc1[C@H](C(C)(C)C)O3 [Example 22a, (5S,10R)-5-(tert-butyl)-10-butyl-11-methyl-8-phenyl-8,9,10,11-tetrahydro-5H-benzo[3,4]chromeno[7,6-f][1,2,5]thiadiazepine-2-carboxylic acid 12,12-dioxide]
> 1	CCCC[C@@H]1CN(c2ccccc2)c2cc3c(cc2S(=O)(=O)N1C)-c1cc(C(=O)O)ccc1C1(CC1)N3 [Example 33, (R)-10′-butyl-11′-methyl-8′-phenyl-8′,9′,10′,11′-tetrahydro-6′H-spiro[cyclopropane-1,5′-[1,2,5]thiadiazepino[7,6-b]phenanthridine]-2′-carboxylic acid 12′,12′-dioxide]
> 1	CCCC[C@@H]1CN(c2ccccc2)c2cc3c(cc2S(=O)(=O)N1C)-c1nc(C(=O)O)ccc1CO3 [Example 11, (R)-10-butyl-11-methyl-8-phenyl-8,9,10,11-tetrahydro-5H-pyrido[3′,2′:3,4]chromeno[7,6-f][1,2,5]thiadiazepine-2-carboxylic acid 12,12-dioxide]
> 1	CCCC[C@@H]1CN(c2ccccc2)c2cc3c(cc2S(=O)(=O)N1C)-c1cccc(C(=O)O)c1CO3 [Example 9]
0.1 to 1	CCCC[C@@H]1CN(c2ccccc2)c2cc3c(cc2S(=O)(=O)N1C)-c1cc(C(=O)O)ccc1CN3 [Example 29]
